Source: PMC4919791, “Effect of curcumin analogs onα-synuclein aggregation and cytotoxicity” (Scientific Reports, 2016)

Assays:
[1] = biological target: T1, α-Syn oligomers (Homo sapiens, UniProt P37840); assay: Binding affinity to α-Syn oligomers by curcumin analog fluorescence; settings: for Kd: compound fluorescence, read-out: dissociation constant (Kd) for α-Syn oligomers; for affinity to oligomers compared to fibrils: comparison of Kd for fibrils and oligomers
T1 construct: made in house; host or cells: Escherichia coli BL21
Protocol: Immediately after incubation, fluorescence study was performed (for the excitation and emission ranges for each compounds, see Fig. S1). Experiments were performed using FluoroMax-4 spectrofluorometer (HORIBA JobinYvon) with excitation and emission slit widths of 5 nm.
The data were analyzed in Graphpad Prism software according to established method as used previously.

[2] = biological target: T2, α-Syn (Homo sapiens, UniProt P37840); assay: TEM of α-Syn aggregates formed in presence of analogs; format: biochemical
T2 construct: made in house; host or cells: Escherichia coli BL21
Protocol: (§1) Subsequently, we examined the effect of these analogs on α-Syn oligomerization by time dependent static light scattering experiment. […] After aggregation, TEM study was done to determine the effects of these analogs on the morphology of the resultant aggregates.
(§2) The samples were then washed thrice with autoclaved MQ. The samples were then stained with 10 μl of uranyl formate 1% (w/v) and incubated in dark for 10 min. The EM image of each sample was acquired at 120 kV with magnifications in the range of 26,000X and 43,000X using a transmission electron microscope (TECNAI12 D312 FEI, Netherlands).

[3] = biological target: T3, preformed α-Syn fibrils (Homo sapiens, UniProt P37840); assay: LDH cytotoxicity assay of preformed α-Syn fibrils incubated with curcumin analogs; format: cell-based; settings: fibrils incubated with analog 48 h; SH-SY5Y cells
T3 construct: made in house; host or cells: Escherichia coli BL21
Protocol: The concentration of the fibrils was determined by subtraction of supernatant concentration from the original concentration of α-Syn kept for fibrillation.
The percent LDH release was plotted as difference in the absorbance value of 490 nm and 690 nm, considering 100% release for the TritonX-100 treated cells.

[4] = Stability of curcumin analogs by time-dependent intrinsic fluorescence; format: physicochemical; settings: 20 mM MES buffer pH 6.0, 0.01% NaN3, 37 °C
Protocol: 1μl of this DMSO-stock solution was transferred to 2 ml microfuge tube and 1 ml of 20 mM MES buffer (pH 6.0, 0.01% NaN3) was added to it and mixed immediately by vortexing. These solutions were incubated at 37 °C and their respective fluorescence was taken at certain time intervals. The fluorescence was monitored by placing the 200 μl of the incubated solution in 0.1 cm path-length quartz cuvette (Hellma, Forest Hills, NY) and the spectra were acquired by using FluoroMax-4 spectrofluorometer (HORIBA JobinYvon) instrument with excitation and emission slit widths of 5 nm and 10 nm respectively. The fluorescence intensity maxima for each sample were plotted against time of incubation and fitted in exponential decay 1 in the Origin 8.0 software according to manufacture’s protocol (Fig. 2A).

[5] = biological target: T2, α-Syn; assay: α-Syn aggregation kinetics by compound fluorescence; format: biochemical; settings: in presence of analog
Protocol: ThT fluorescence was used to monitor the aggregation kinetics of α-Syn only as a control.
as §1
The α-Syn amyloid aggregation was started with LMW α-Syn of concentration ~300 μM in 1.5 ml microfuge tube in 20 mM MES buffer, pH 6.0, with 0.01% NaN3. […] The microfuge tubes with protein solutions were placed into Echo-Therm model RT11 vertical rotor (Torrey Pines Scientific, USA) with a speed of 50 rpm, at 37 °C inside an incubator.
The experiments were performed in FluoroMax-4 spectrofluorometer (HORIBA JobinYvon) with excitation and emission slit widths of 5 nm. Fluorescence was done in 20 mM MES buffer (pH 6.0, 0.01% NaN3).

[6] = biological target: T3, preformed α-Syn fibrils; assay: Nile red binding assay on preformed α-Syn fibrils; format: biochemical; settings: fibrils incubated with analog 48 h
Protocol: Stock solution of NR was prepared in DMSO (1 mM). […] Similar experimental protocol was used for NR binding to oligomers. FluoroMax-4 spectrofluorometer (HORIBA JobinYvon) was used with excitation and emission slit widths of 5 nm. The maximum NR fluorescence obtained at ~630 nm was used for plotting bar diagrams.

[7] = biological target: T4, α-Syn fibrils (Homo sapiens, UniProt P37840); assay: Binding affinity to α-Syn fibrils by curcumin analog fluorescence; settings: for binding with preformed α-Syn fibrils: compound fluorescence
T4 construct: made in house; host or cells: Escherichia coli BL21
Protocol: To estimate the comparative binding affinity of curcumin analogs to the α-Syn fibrils and oligomers, curcumin fluorescence assay was performed for each analog. For binding study with fibrils, 10 μM of α-Syn fibrils were incubated in presence of varying concentration of curcumin and its analogs (0.25 μM to 30 μM) for 30 min at RT in dark and then fluorescence spectra were recorded. The normalized fluorescence intensity of different concentrations of curcumin/analogs at their corresponding λmax was plotted to obtain their respective saturation plots (Figs 6A and S7). From the saturation plot, dissociation constant (Kd) was calculated (see method section).
The binding of curcumin/analogs to α-Syn fibrils were determined based on change in fluorescence intensity. For this study, 10 μM α-Syn fibrils were incubated in presence and absence of varying concentration of curcumin/analogs (0.25 μM to 30 μM) for 30 min at RT in dark. Immediately after incubation, fluorescence study was performed (for the excitation and emission ranges for each compounds, see Fig. S1). Experiments were performed using FluoroMax-4 spectrofluorometer (HORIBA JobinYvon) with excitation and emission slit widths of 5 nm. The maximum fluorescence intensity for curcumin/analogs was normalized with respect to that of the lowest concentration of each analog. The normalized fluorescence intensity was plotted against increasing concentration of curcumin/analogs and the dissociation constant was determined using the equation
where, “ΔF” is the change in the fluorescence intensity of curcumin/analogs, “ΔFmax” is the change in the fluorescence intensity at saturation point and “L”is the concentration of curcumin/analogs. The data were analyzed in Graphpad Prism software according to established method as used previously. Similarly, the dissociation constant of curcumin and its analogs with preformed α-Syn oligomers and monomers (obtained from SEC) were also determined.

[8] = biological target: T5, preformed α-Syn amyloid fibrils (Homo sapiens, UniProt P37840); assay: TEM of preformed α-Syn fibrils with analogs; format: biochemical; settings: after 48 h incubation with analog
T5 construct: made in house; host or cells: Escherichia coli BL21
Protocol: as §2

Row | Compound | Kd [1] [µM] | morphology of α-Syn aggregates formed in presence of analog (TEM) [2] | relative stability compared with curcumin (slope of normalized fluorescence versus time) [4] | effect on rate/kinetics of α-Syn aggregation [5] | fibril morphology/thickness of preformed α-Syn fibrils (TEM, words) [8] | effect on cell death by preformed α-Syn fibrils, LDH [3] | Nile red fluorescence of preformed α-Syn fibrils (exposed hydrophobic surface) [6] | Kd ([7]; 10 μM fibrils, 0.25–30 μM analog, 30 min RT, read-out: dissociation constant (Kd) for α-Syn fibrils) [µM] | binding with preformed α-Syn fibrils [7] | average fibril thickness of fibrils formed in presence of analog [2] | affinity to oligomers compared to fibrils [1]
1 | O=C(/C=C/c1ccccc1)CC(=O)/C=C/c1ccccc1 [C7] | – | fibrils with shorter length | relatively more stable than curcumin | – | thinner fibrils | decrease in cell death | – | 13.2 ± 2.29 | very weak binding | more in comparison to fibrils formed in presence of other analogs | –
2 | O=C(/C=C/c1cccs1)CC(=O)/C=C/c1cccs1 [C8] | 1.46 ± 0.2 | – | relatively more stable than curcumin | less significant effect | thinner fibrils | decrease in cell death | – | – | – | – | higher binding affinity to oligomers as compared to fibrils
3 | O=C(/C=C/c1cccnc1)CC(=O)/C=C/c1cccnc1 [C9] | – | fibrils with shorter length | relatively more stable than curcumin | less significant effect | thinner fibrils | – | – | – | did not show any significant binding | – | –
4 | COc1ccc(/C=C/C(=O)CC(=O)/C=C/c2ccc(OC)cc2)cc1 [C10] | – | fibrils with shorter length | relatively more stable than curcumin | – | – | decrease in cell death | – | – | – | – | higher binding affinity to oligomers as compared to fibrils

Continued, in another order:

Row | Kd [1] [µM] | morphology of α-Syn aggregates formed in presence of analog (TEM) [2] | relative stability compared with curcumin (slope of normalized fluorescence versus time) [4] | effect on rate/kinetics of α-Syn aggregation [5] | fibril morphology/thickness of preformed α-Syn fibrils (TEM, words) [8] | Compound | effect on cell death by preformed α-Syn fibrils, LDH [3] | Nile red fluorescence of preformed α-Syn fibrils (exposed hydrophobic surface) [6] | Kd ([7]; 10 μM fibrils, 0.25–30 μM analog, 30 min RT, read-out: dissociation constant (Kd) for α-Syn fibrils) [µM] | binding with preformed α-Syn fibrils [7] | average fibril thickness of fibrils formed in presence of analog [2] | affinity to oligomers compared to fibrils [1]
5 | 16.5 ± 2.63 | – | – | – | – | COc1ccc(/C=C/C(=O)CC(=O)/C=C/c2ccc(OC)cc2OC)c(OC)c1 [C4] | – | – | – | – | – | –
6 | – | fibrils with shorter length | relatively more stable than curcumin | increases the rate of α-Syn aggregation | – | COc1ccc(OC)c(/C=C/C(=O)CC(=O)/C=C/c2cc(OC)ccc2OC)c1 [C5] | decrease in cell death | less NR fluorescence for fibrils as compared to curcumin | – | – | – | –
